Results: US11584714B2 (priority 2018, dated 2023)
pKi: −log10 of the molar value. Counter-ions that a name gives are not always drawn. Like-named read-outs stand apart in the source and are kept apart here.

Key:
Format in all cases: biochemical
[1] = target: mMASP-2 (Mus musculus (Mouse), UniProt Q91WP0); experiment: Enzymatic inhibition of mMASP-2; conditions: read-out: mMASP-2 Ki
[2] = target: human α-thrombin (Homo sapiens (Human), UniProt P00734); experiment: Enzymatic assay for thrombin (Boc-VPR-AMC substrate); conditions: for pKi: read-out: Thrombin Ki; for Ki: Thrombin Ki (μM)
[3] = target: MASP-2 (CCP1-CCP2-SP) (Homo sapiens (Human), UniProt O00187); experiment: biochemical
Sequence of MASP-2 (CCP1-CCP2-SP) (O00187 445-686): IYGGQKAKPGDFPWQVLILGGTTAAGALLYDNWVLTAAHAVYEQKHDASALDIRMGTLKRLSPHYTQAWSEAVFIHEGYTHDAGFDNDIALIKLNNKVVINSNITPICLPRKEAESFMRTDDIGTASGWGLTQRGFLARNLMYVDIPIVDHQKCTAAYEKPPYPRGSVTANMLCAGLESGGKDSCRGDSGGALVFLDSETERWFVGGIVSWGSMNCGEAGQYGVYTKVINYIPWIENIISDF

[4] = selectivity for MASP-2 inhibition versus thrombin

Sequence of mMASP-2 (Q91WP0 20-685): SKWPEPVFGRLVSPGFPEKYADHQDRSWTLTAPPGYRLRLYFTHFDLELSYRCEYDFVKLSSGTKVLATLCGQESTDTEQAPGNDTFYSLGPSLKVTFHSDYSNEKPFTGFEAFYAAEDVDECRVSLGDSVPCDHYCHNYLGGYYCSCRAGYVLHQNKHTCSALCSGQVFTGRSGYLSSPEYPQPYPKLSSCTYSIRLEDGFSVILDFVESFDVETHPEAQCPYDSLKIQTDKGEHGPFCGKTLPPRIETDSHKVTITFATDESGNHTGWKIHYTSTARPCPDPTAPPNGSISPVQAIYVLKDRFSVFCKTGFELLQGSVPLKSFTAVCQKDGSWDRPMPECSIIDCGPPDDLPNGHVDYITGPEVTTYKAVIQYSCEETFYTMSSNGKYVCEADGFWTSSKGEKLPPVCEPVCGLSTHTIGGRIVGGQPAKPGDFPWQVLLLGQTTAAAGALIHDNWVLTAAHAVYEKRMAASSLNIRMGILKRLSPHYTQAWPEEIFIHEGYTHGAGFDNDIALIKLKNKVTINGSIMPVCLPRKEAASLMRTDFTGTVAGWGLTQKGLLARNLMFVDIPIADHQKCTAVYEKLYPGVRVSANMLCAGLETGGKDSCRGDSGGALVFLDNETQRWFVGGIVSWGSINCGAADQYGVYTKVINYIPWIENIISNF

Structure (SMILES)	pKi [1]	pKi [2]	pKi ([3]; read-out: MASP-2 Ki)	pKi [3]	MASP-2 vs. thrombin selectivity ([3]; MASP-2 inhibition versus thrombin)	MASP-2 vs. thrombin selectivity [3, 4]	Ki [2]
Cc1cc(Br)cc(CNC(=O)[C@H](C)NC(=O)[C@H](N)CCc2ccccc2)c1O [compound 1355, (R)-2-amino-N—((S)-1-((5-bromo-2-hydroxy-3-methylbenzyl)amino)-1-oxopropan-2-yl)-4-phenylbutanamide Trifluoroacetate salt]	4.60 to 5.00	< 4.60	> 6.30				
C[C@H](NC(=O)[C@H](N)CCc1ccccc1)C(=O)NCc1cnc(N)c(F)c1 [compound 1267, (R)-2-amino-N—((S)-1-(((6-amino-5-fluoropyridin-3-yl)methyl)amino)-1-oxopropan-2-yl)-4-phenylbutanamide]	< 4.60	< 4.60		5.00 to 5.60			
C[C@H](NC(=O)[C@@H](CCc1ccccc1)NCc1ccccc1)C(=O)NCc1ccc(C(=N)N)cc1 [compound 1134]	> 6.30	> 6.30	> 6.30		−− (less than 1.0-fold)		
C[C@H](NC(=O)[C@@H](CCc1ccccc1)NCCc1cccc(O)c1)C(=O)NCc1ccc(C(=N)N)cc1 [compound 1330, (R)—N—((S)-1-((4-Carbamimidoylbenzyl)amino)-1-oxopropan-2-yl)-2-((3-hydroxyphenethyl)amino)-4-phenylbutanamide Di-trifluoroacetate salt]	> 6.30	> 6.30	> 6.30			*** (≥25 to <100-fold)	
COc1cc2ccccc2cc1C[C@@H]1CN[C@@H](C(=O)N[C@@H](C)C(=O)NCc2ccc(N)nc2C)C1 [compound 1478, (2R,4S)—N—((S)-1-(((6-Amino-2-methylpyridin-3-yl)methyl)amino)-1-oxopropan-2-yl)-4-((3-methoxynaphthalen-2-yl)methyl)pyrrolidine-2-carboxamide Dihydrochloride]	> 6.30		> 6.30			**** (≥100-fold)	10 to 25 µM
C[C@H](NC(=O)c1cc(-c2ccccc2)n[nH]1)C(=O)NCc1ccc(C(=N)N)cc1 [compound 1295, (S)—N-(1-((4-Carbamimidoylbenzyl)amino)-1-oxopropan-2-yl)-3-phenyl-1H-pyrazole-5-carboxamide]	> 6.30		> 6.30			*** (≥25 to <100-fold)	2.5 to 10 µM
Cc1cc(Cl)cc(CNC(=O)[C@H](C)NC(=O)[C@H]2C[C@H](Cc3ccccc3-c3ccc(Cl)s3)CN2)c1O [compound 1408, (2R,4S)—N—((S)-1-((5-Chloro-2-hydroxy-3-methylbenzyl)amino)-1-oxopropan-2-yl)-4-(2-(5-chlorothiophen-2-yl)benzyl)pyrrolidine-2-carboxamide Hydrochloride]	5.00 to 5.60		> 6.30			** (≥5.0 to <25-fold)	2.5 to 10 µM
Cc1nc(N)ccc1CNC(=O)[C@H](C)NC(=O)[C@@H](CCc1ccccc1)NCCc1cccc(O)c1 [compound 1349, (R)—N—((S)-1-(((6-Amino-2-methylpyridin-3-yl)methyl)amino)-1-oxopropan-2-yl)-2-((3-hydroxyphenethyl)amino)-4-phenylbutanamide Dihydrochloride]	5.00 to 5.60	< 4.60		5.60 to 6.30		** (≥5.0 to <25-fold)	
CCCCCN[C@H](CCc1ccccc1)C(=O)N[C@@H](C)C(=O)NCc1ccc(N)nc1C [compound 1377, (R)—N—((S)-1-(((6-Amino-2-methylpyridin-3-yl)methyl)amino)-1-oxopropan-2-yl)-2-(pentylamino)-4-phenylbutanamide Di-trifluoroacetate salt]	< 4.60			5.60 to 6.30		** (≥5.0 to <25-fold)	10 to 25 µM
CC(C)COC(=O)NC(=N)c1ccc(CNC(=O)[C@H](C)NC(=O)[C@H]2C[C@H](c3ccccc3)CN2)cc1 [compound 1293, Isobutyl (imino(4-(((S)-2-((2R,4R)-4-phenylpyrrolidine-2-carboxamido)propanamido)methyl)phenyl)methyl)carbamate]	5.00 to 5.60	< 4.60		5.00 to 5.60		* (≥1.0 to <5.0-fold)	
CCc1nc(N)ccc1CNC(=O)[C@H](C)NC(=O)[C@H]1C[C@H](c2ccccc2)CN1 [compound 1323, (2R,4R)—N—((S)-1-(((6-Amino-2-ethylpyridin-3-yl)methyl)amino)-1-oxopropan-2-yl)-4-phenylpyrrolidine-2-carboxamide Dihydrochloride]	4.60 to 5.00	< 4.60	< 4.60				
C[C@H](NC(=O)[C@H]1C[C@H](c2ccccc2)CN1)C(=O)NCc1cnc2c(c1)c(Cl)cn2C [compound 1442, (2R,4R)—N—((S)-1-(((3-Chloro-1-methyl-1H-pyrrolo[2,3-b]pyridin-5-yl)methyl)amino)-1-oxopropan-2-yl)-4-phenylpyrrolidine-2-carboxamide Dihydrochloride]	> 6.30	< 4.60	> 6.30				
C[C@H](NC(=O)[C@H]1C[C@H](c2ccccc2)CN1)C(=O)NCc1cc(Cl)ccc1O [compound 1242, (2R,4R)—N—((S)-1-((5-Chloro-2-hydroxybenzyl)amino)-1-oxopropan-2-yl)-4-phenylpyrrolidine-2-carboxamide]	5.00 to 5.60			5.60 to 6.30		** (≥5.0 to <25-fold)	2.5 to 10 µM
Cc1nc(N)ccc1CNC(=O)[C@H](C)NC(=O)[C@H]1C[C@@H](Oc2ccccc2)CN1 [compound 1310, (2R,4R)—N—((S)-1-(((6-Amino-2-methylpyridin-3-yl)methyl)amino)-1-oxopropan-2-yl)-4-phenoxypyrrolidine-2-carboxamide Dihydrochloride]	< 4.60	< 4.60		5.60 to 6.30		*** (≥25 to <100-fold)	
C[C@H](NC(=O)[C@H]1C[C@H](c2ccccc2)CN1)C(=O)NCc1cc(Cl)c2[nH]cnc2c1 [compound 1417, (2R,4R)—N—((S)-1-(((7-Chloro-1H-benzo[d]imidazol-5-yl)methyl)amino)-1-oxopropan-2-yl)-4-phenylpyrrolidine-2-carboxamide Trifluoroacetate salt]	5.00 to 5.60	< 4.60		5.60 to 6.30			
C[C@H](NC(=O)[C@H]1C[C@H](Cc2ccc(F)c(Cl)c2)CN1)C(=O)NCc1cc2cnccc2[nH]1 [compound 1494, (2R,4S)—N—((S)-1-(((1H-Pyrrolo[3,2-c]pyridin-2-yl)methyl)amino)-1-oxopropan-2-yl)-4-(3-chloro-4-fluorobenzyl)pyrrolidine-2-carboxamide Di-trifluoroacetate salt]	> 6.30		> 6.30			**** (≥100-fold)	2.5 to 10 µM
C[C@H](NC(=O)[C@@H](CCc1ccccc1)NCCc1ccc(O)cc1)C(=O)NCc1ccc(C(=N)N)cc1 [compound 1327, (R)—N—((S)-1-((4-Carbamimidoylbenzyl)amino)-1-oxopropan-2-yl)-2-((4-hydroxyphenethyl)amino)-4-phenylbutanamide dihydrochloride]	> 6.30	> 6.30	> 6.30			*** (≥25 to <100-fold)	
N=C(N)c1ccc(CNC(=O)[C@H](Cc2ccc(O)cc2)NC(=O)[C@H](N)CCc2ccccc2)cc1 [compound 1326, (R)-2-Amino-N—((S)-1-((4-carbamimidoylbenzyl)amino)-3-(4-hydroxyphenyl)-1-oxopropan-2-yl)-4-phenylbutanamide Di-trifluoroacetate salt]	> 6.30		> 6.30			*** (≥25 to <100-fold)	10 to 25 µM
C[C@H](NC(=O)[C@H]1C[C@H](c2ccccc2)CN1)C(=O)NCc1cc(N)n[nH]1 [compound 1336, (2R,4R)—N—((S)-1-(((3-Amino-1H-pyrazol-5-yl)methyl)amino)-1-oxopropan-2-yl)-4-phenylpyrrolidine-2-carboxamide Dihydrochloride]	< 4.60	< 4.60		4.60 to 5.00			
C[C@H](NC(=O)[C@H]1C[C@H](c2ccccc2)CN1)C(=O)NCc1ccc(C(=N)NC(=O)OCC(F)(F)F)cc1 [compound 1305, 2,2,2-Trifluoroethyl (imino(4-(((S)-2-((2R,4R)-4-phenylpyrrolidine-2-carboxamido)propanamido)methyl)phenyl)methyl)carbamate]	> 6.30	< 4.60		5.60 to 6.30		** (≥5.0 to <25-fold)	
C[C@H](NC(=O)[C@H](N)CCc1ccccc1)C(=O)NCc1cccnc1N [compound 1346, (R)-2-Amino-N—((S)-1-(((2-aminopyridin-3-yl)methyl)amino)-1-oxopropan-2-yl)-4-phenylbutanamide Dihydrochloride]	< 4.60	< 4.60		4.60 to 5.00			
C[C@H](NC(=O)[C@@H](CCc1ccccc1)NCCCc1cccc(O)c1)C(=O)NCc1ccc(C(=N)N)cc1 [compound 1312, (R)—N—((S)-1-((4-Carbamimidoylbenzyl)amino)-1-oxopropan-2-yl)-2-((3-(3-hydroxyphenyl)propyl)amino)-4-phenylbutanamide Di-trifluoroacetate salt]	> 6.30	> 6.30	> 6.30			* (≥1.0 to <5.0-fold)	
CC(=O)Nc1ccc(Cl)cc1CNC(=O)[C@H](C)NC(=O)[C@H]1C[C@H](c2ccccc2)CN1 [compound 1269, (2R,4R)—N—((S)-1-((2-Acetamido-5-chlorobenzyl)amino)-1-oxopropan-2-yl)-4-phenylpyrrolidine-2-carboxamide]	4.60 to 5.00	< 4.60		5.60 to 6.30		** (≥5.0 to <25-fold)	
C[C@H](NC(=O)[C@H](N)CCc1ccccc1)C(=O)NCc1ccc(CN)nc1 [compound 1280, (R)-2-Amino-N—((S)-1-(((6-(aminomethyl)pyridin-3-yl)methyl)amino)-1-oxopropan-2-yl)-4-phenylbutanamide]	4.60 to 5.00	< 4.60		5.00 to 5.60			
